Data from paper PMC7997578, “Design, Synthesis, Dynamic Docking, Biochemical Characterization, and in Vivo Pharmacokinetics Studies of Novel Topoisomerase II Poisons with Promising Antiproliferative Activity” (Journal of Medicinal Chemistry, 2020).

Experiments:
[1] = target: T1, human topoIIα (Homo sapiens, UniProt P11388); experiment: topoII decatenation assay (Inspiralis); format: biochemical
T1 construct: purchased Inspiralis
Method: We measured the inhibitor activity of our new compounds against human topoIIα, using a topoII decatenation assay (Table 1).
The activity of topoIIα was measured using a decatenation assay (Inspiralis) following the manufacturer’s instructions. Compounds were dissolved in DMSO and used at a concentration ranging from 200 to 1 μM. Final DMSO concentration in the assay was ≤1%. Reaction mixtures were incubated for 30 min at 37 °C and terminated with STEB buffer (40% (w/v) sucrose, 100 mM Tris-HCl, pH 8, 1 mM EDTA, 0.5 mg/mL bromophenol blue). Reaction products were resolved by electrophoresis in 1% agarose gels containing SYBR Safe DNA stain (Invitrogen), scanned, and quantified using the ChemiDoc system (BioRad). IC50 values were obtained with GraphPad Prism software (version 5.03) using the band intensities of the dose–response gels. Values are reported as the mean ± SD of two independent experiments.

[2] = plasma protein binding (rapid equilibrium dialysis), mouse; format: in vitro ADME; conditions: pH 7.4
Method: (§1) 3. Aqueous t herm odynam ic solu bili ty
(§2) The thermodynamic solubility of 3f was determined by addition of Phosphate Buffered Saline (PBS) at pH 7. 4 to an exces s of solid compound.
(§3) The assay was performed by incubation of an aliquot of 2. 5mg of test compound in 500µL of PBS at pH 7. 4. The suspension was shaken at 300 RPM for 24h at 25°C. At the end of the incubation period, the saturated solution was filtered and analyzed by UPLC/MS for the quantification of dissolved compound (in µM) by UV at a specific wavelength ( λmax of the test compound). The analyses were performed on a Waters ACQUITY UPLC/MS SQD system equipped with an ESI ion source. The analyses were run on an ACQUITY UPLC BEH C 18 column (50x2. 1mmI D, particle size 1. 7µm) with a VanGuard BEH C 18 pr e-column (5x2. 1mmID, particle size 1. 7µm), using H 2O + 0. 1% HCOOH (A) and CH 3CN + 0. 1% HCOOH (B) as mobile phase.
(§4) 4. Plasm a Protei n Bindi ng
(§5) The assay was conducted in triplicate in human and mouse plasma. An appropriate volume of plasma was spiked with a known amount of 10mM DMSO stock solution of the test compound, thus reaching the incubation concentrations of 0. 5, 1 and 5 µM. […] At this point, the supernatants were ready for injections in the UPLC -MS/ MS system. […] Plasma protein binding was calculated applying appropriate corrections to compensate for dilutions during sampling.

[3] = plasma protein binding (rapid equilibrium dialysis), human; format: in vitro ADME; conditions: pH 7.4
Method: as §1, §2, §3, §4, §5

T1 sequence (P11388 whole entry): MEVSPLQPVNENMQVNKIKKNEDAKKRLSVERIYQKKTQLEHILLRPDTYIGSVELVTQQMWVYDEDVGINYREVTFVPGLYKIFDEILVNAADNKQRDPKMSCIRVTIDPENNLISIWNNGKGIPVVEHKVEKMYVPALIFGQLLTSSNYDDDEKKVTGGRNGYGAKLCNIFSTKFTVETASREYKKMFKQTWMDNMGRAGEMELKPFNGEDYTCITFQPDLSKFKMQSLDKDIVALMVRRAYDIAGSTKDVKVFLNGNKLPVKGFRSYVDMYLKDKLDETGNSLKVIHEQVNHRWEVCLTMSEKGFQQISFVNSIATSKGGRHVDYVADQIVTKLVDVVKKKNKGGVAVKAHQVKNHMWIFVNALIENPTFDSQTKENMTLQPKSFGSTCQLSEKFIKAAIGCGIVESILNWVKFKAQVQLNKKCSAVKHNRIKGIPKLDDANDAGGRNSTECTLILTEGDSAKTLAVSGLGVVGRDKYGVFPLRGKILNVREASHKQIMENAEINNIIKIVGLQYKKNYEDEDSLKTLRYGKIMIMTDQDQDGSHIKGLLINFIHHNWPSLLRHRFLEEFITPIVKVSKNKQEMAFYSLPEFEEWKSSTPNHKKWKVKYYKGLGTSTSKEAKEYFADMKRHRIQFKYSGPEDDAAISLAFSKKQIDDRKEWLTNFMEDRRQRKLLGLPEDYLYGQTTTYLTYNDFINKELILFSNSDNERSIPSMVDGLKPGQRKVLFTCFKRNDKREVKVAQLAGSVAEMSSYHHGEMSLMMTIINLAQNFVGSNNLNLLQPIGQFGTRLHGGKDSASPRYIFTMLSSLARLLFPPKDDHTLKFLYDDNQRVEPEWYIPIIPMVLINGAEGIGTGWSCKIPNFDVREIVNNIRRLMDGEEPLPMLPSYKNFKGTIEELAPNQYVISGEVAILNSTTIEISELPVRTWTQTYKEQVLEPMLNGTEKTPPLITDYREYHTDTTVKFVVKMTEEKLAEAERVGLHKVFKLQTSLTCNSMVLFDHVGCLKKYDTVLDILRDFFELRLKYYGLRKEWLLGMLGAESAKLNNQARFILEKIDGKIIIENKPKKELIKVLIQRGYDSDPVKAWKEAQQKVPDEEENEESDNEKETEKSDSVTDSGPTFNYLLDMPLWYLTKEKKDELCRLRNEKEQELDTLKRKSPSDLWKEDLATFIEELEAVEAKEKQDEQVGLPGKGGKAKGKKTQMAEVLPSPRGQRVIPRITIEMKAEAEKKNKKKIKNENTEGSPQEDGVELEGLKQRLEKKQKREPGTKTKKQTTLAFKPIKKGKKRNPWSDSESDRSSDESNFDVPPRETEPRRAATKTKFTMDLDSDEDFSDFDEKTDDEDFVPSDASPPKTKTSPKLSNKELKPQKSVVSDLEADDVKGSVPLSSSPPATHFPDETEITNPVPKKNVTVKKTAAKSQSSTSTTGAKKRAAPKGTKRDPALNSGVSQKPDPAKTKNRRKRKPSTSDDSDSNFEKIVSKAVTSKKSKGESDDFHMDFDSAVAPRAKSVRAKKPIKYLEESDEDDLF

Compound: O=C(Nc1cccc(OC(F)(F)F)c1)c1c(O)n(-c2ccccc2)c(=S)n(-c2ccccc2)c1=O [3f, 6-Hydroxy-4-oxo-1,3-diphenyl-2-thioxo-N-(3-(trifluoromethoxy)phenyl)-1,2,3,4-tetrahydropyrimidine-5-carboxamide]
- IC50 ([1]; human topoIIα decatenation assay, mean ± SD of two independent experiments, read-out: IC50): 7.3 ± 1.5 µM
- fold increased activity compared to ARN16267 ([1]; topoIIα decatenation IC50 versus ARN16267): 2 fold
- fraction unbound at 3 h [2]: < 0.01
- fraction unbound at 3 h [3]: < 0.01
